The record followed here is PMC4521981 (Nature methods, 2015).

The test system of experiment [1] is MBP-SCRIB-4/4 PDZ construct. Put plainly: Automated holdup assay, benchmark set. The following applies: overlaid electropherograms of peptide and biotin flowthroughs. It counts as binding, human.
Experiment [2] deals with MBP-SCRIB-34/4 PDZ tandem construct. Put plainly: Automated holdup assay, benchmark set. Type of experiment: binding, human. The following applies: overlaid electropherograms of peptide and biotin flowthroughs.

GSGAGHETIV [TMFLJ_05]: in experiment [1], the “binding strength in holdup” value is “no binding”.

Turning to GSGAGKETLV [NET1_05], the “binding strength in holdup” value in experiment [2] is on record as “moderate binding”.
